Measured values taken from PMC6110922, “Inhibition of Chloride Intracellular Channel 1 (CLIC1) as Biguanide Class-Effect to Impair Human Glioblastoma Stem Cell Viability” (Frontiers in Pharmacology, 2018).
Counter-ions that a name gives are not always drawn.

Biological target: T1, chloride intracellular channel 1 (CLIC1) (Homo sapiens, UniProt O00299)
T1 construct: endogenous channel in GBM2 and GBM4 glioblastoma stem cells
Assay: perforated-patch whole-cell patch clamp, CLIC1 (IAA94-sensitive) current
Format: cell-based

| SMILES | perforated-patch whole-cell patch clamp, CLIC1 (IAA94-sensitive) current [mM] |
| --- | --- |
| CC1(C)N=C(N)N=C(N)N1c1ccc(Cl)cc1 [cycloguanil] | 0.5 |
| CN(C)C(=N)NC(=N)N [metformin, 1,1-dimethylbiguanide hydrochloride] | 10 |
